These results are taken from patent US12295936B2, “Immunomodulating urea azalides” (Zoetis Services LLC, priority 2020, dated 2025).

Test [1] concerns TNF-α. The experiment in a line: LPS-stimulated whole bovine blood assay, MSD cytokine detection. Type of test: cell-based. The note with it: Bos taurus, LPS-stimulated bovine whole blood; read-out: TNF-α (IC50 μM).
In test [2] the test system is IL-1β. The test is described as above. The note with it: overstimulation of IL-1β, LPS-stimulated bovine whole blood. Type of test: cell-based.
For test [3], the system named is IL-6. The description is as above. Type of test: cell-based. The note with it: Bos taurus, LPS-stimulated bovine whole blood; read-out: IL-6 (IC50 μM). The text has this: In order to correlate RNA sequencing data to cytokine changes the whole blood assay was utilized. […] The enhancement result represents an overall stimulation of cytokine levels due to cellular stress or potential toxicity with increasing concentrations of the compound, representing a typical bell shape response curve for immunomodulatory activity.

Test [4] deals with BRD pathogens, M. haemolytica and P. multocida. As to the kind of experiment: MIC screening panel of BRD pathogens (antibacterial / non-antibacterial). The note with it: read-out: antibacterial / non-antibacterial (MIC for the BRD pathogens).

By IC50 is commonly meant the concentration that gives 50% inhibition.

For `CC[C@H]1OC(=O)[C@H](C)[C@@H](O[C@H]2C[C@@](C)(OC)[C@](O)(CNCCCn3ccnc3)[C@H](C)O2)[C@H](C)[C@@H](O[C@@H]2O[C@H](C)C[C@H](N(C)C(=O)N(C)c3ccccc3)[C@H]2O)[C@](C)(O)C[C@@H](C)CN[C@H](C)[C@@H](O)[C@]1(C)O` [Example H-25, 1-((2S,3R,4S,6R)-2-(((2R,3S,4R,5R,8R,10R,11R,12S,13S,14R)-13-(((2R,4R,5S,6S)-5-(((3-(1H-imidazol-1-yl)propyl)amino)methyl)-5-hydroxy-4-methoxy-4,6-dimethyltetrahydro-2H-pyran-2-yl)oxy)-2-ethyl-3,4,10-trihydroxy-3,5,8,10,12,14-hexamethyl-15-oxo-1-oxa-6-azacyclopentadecan-11-yl)oxy)-3-hydroxy-6-methyltetrahydro-2H-pyran-4-yl)-1,3-dimethyl-3-phenylurea], the IC50 in test [1] stood at 19 µM; in test [3], 22 µM. Further, the “IL-1β OS of LPS” value in test [2] came out at 16 µM. Further, the MIC in test [4] was above 64 µg/mL.
With `CC[C@H]1OC(=O)[C@H](C)[C@@H](O[C@H]2C[C@@](C)(OC)[C@](O)(CNC3CC3)[C@H](C)O2)[C@H](C)[C@@H](O[C@@H]2O[C@H](C)C[C@H](N(C)C(=O)N(C)c3ccccc3)[C@H]2O)[C@](C)(O)C[C@@H](C)CN[C@H](C)[C@@H](O)[C@]1(C)O` [Example H-27, 1-((2S,3R,4S,6R)-2-(((2R,3S,4R,5R,8R,10R,11R,12S,13S,14R)-13-(((2R,4R,5S,6S)-5-((cyclopropylamino)methyl)-5-hydroxy-4-methoxy-4,6-dimethyltetrahydro-2H-pyran-2-yl)oxy)-2-ethyl-3,4,10-trihydroxy-3,5,8,10,12,14-hexamethyl-15-oxo-1-oxa-6-azacyclopentadecan-11-yl)oxy)-3-hydroxy-6-methyltetrahydro-2H-pyran-4-yl)-1,3-dimethyl-3-phenylurea], the figures for the half-inhibitory concentration (IC50) in test [1] and in test [3] were 8 µM and 17 µM, respectively. In addition, the “IL-1β OS of LPS” value in test [2] came out at 16 µM. Further, the MIC in test [4] is above 64 µg/mL.
The like results for `CCCCNC[C@]1(O)[C@H](C)O[C@@H](O[C@H]2[C@H](C)[C@@H](O[C@@H]3O[C@H](C)C[C@H](N(C)C(=O)N(C)c4ccccc4)[C@H]3O)[C@](C)(O)C[C@@H](C)CN[C@H](C)[C@@H](O)[C@](C)(O)[C@@H](CC)OC(=O)[C@@H]2C)C[C@@]1(C)OC` [Example H-28, 1-((2S,3R,4S,6R)-2-(((2R,3S,4R,5R,8R,10R,11R,12S,13S,14R)-13-(((2R,4R,5S,6S)-5-((butylamino)methyl)-5-hydroxy-4-methoxy-4,6-dimethyltetrahydro-2H-pyran-2-yl)oxy)-2-ethyl-3,4,10-trihydroxy-3,5,8,10,12,14-hexamethyl-15-oxo-1-oxa-6-azacyclopentadecan-11-yl)oxy)-3-hydroxy-6-methyltetrahydro-2H-pyran-4-yl)-1,3-dimethyl-3-phenylurea] were, in that order, 13 µM, 8 µM, 17 µM and above 64 µg/mL.
As for `CC[C@H]1OC(=O)[C@H](C)[C@@H](O[C@H]2C[C@@](C)(OC)[C@](O)(CNCCC(C)C)[C@H](C)O2)[C@H](C)[C@@H](O[C@@H]2O[C@H](C)C[C@H](N(C)C(=O)N(C)c3ccccc3)[C@H]2O)[C@](C)(O)C[C@@H](C)CN[C@H](C)[C@@H](O)[C@]1(C)O` [Example H-29, 1-((2S,3R,4S,6R)-2-(((2R,3S,4R,5R,8R,10R,11R,12S,13S,14R)-2-ethyl-3,4,10-trihydroxy-13-(((2R,4R,5S,6S)-5-hydroxy-5-((isopentylamino)methyl)-4-methoxy-4,6-dimethyltetrahydro-2H-pyran-2-yl)oxy)-3,5,8,10,12,14-hexamethyl-15-oxo-1-oxa-6-azacyclopentadecan-11-yl)oxy)-3-hydroxy-6-methyltetrahydro-2H-pyran-4-yl)-1,3-dimethyl-3-phenylurea], the IC50 in test [1] and in test [3] was 50 µM each time. Also, the “IL-1β OS of LPS” value in test [2] turned out to be 3 µM. In addition, the MIC in test [4] was above 64 µg/mL.
As for `CC[C@H]1OC(=O)[C@H](C)[C@@H](O[C@H]2C[C@@](C)(OC)[C@](O)(CNCC3CCN(C(C)=O)CC3)[C@H](C)O2)[C@H](C)[C@@H](O[C@@H]2O[C@H](C)C[C@H](N(C)C(=O)N(C)c3ccccc3)[C@H]2O)[C@](C)(O)C[C@@H](C)CN[C@H](C)[C@@H](O)[C@]1(C)O` [Example H-31, 1-((2S,3R,4S,6R)-2-(((2R,3S,4R,5R,8R,10R,11R,12S,13S,14R)-13-(((2R,4R,5S,6S)-5-((((1-acetylpiperidin-4-yl)methyl)amino)methyl)-5-hydroxy-4-methoxy-4,6-dimethyltetrahydro-2H-pyran-2-yl)oxy)-2-ethyl-3,4,10-trihydroxy-3,5,8,10,12,14-hexamethyl-15-oxo-1-oxa-6-azacyclopentadecan-11-yl)oxy)-3-hydroxy-6-methyltetrahydro-2H-pyran-4-yl)-1,3-dimethyl-3-phenylurea], the concentration for half-maximal inhibition (IC50) in test [1] and in test [3] was 41 µM each time. For the same compound, the “IL-1β OS of LPS” value in test [2] stood at 81 µM. For the same compound, the MIC in test [4] is above 64 µg/mL.
Take `CC[C@H]1OC(=O)[C@H](C)[C@@H](O[C@H]2C[C@@](C)(OC)[C@](O)(CNc3ccccc3)[C@H](C)O2)[C@H](C)[C@@H](O[C@@H]2O[C@H](C)C[C@H](N(C)C(=O)N(C)c3ccccc3)[C@H]2O)[C@](C)(O)C[C@@H](C)CN[C@H](C)[C@@H](O)[C@]1(C)O` [Example H-32, 1-((2S,3R,4S,6R)-2-(((2R,3S,4R,5R,8R,10R,11R,12S,13S,14R)-2-ethyl-3,4,10-trihydroxy-13-(((2R,4R,5S,6S)-5-hydroxy-4-methoxy-4,6-dimethyl-5-((phenylamino)methyl)tetrahydro-2H-pyran-2-yl)oxy)-3,5,8,10,12,14-hexamethyl-15-oxo-1-oxa-6-azacyclopentadecan-11-yl)oxy)-3-hydroxy-6-methyltetrahydro-2H-pyran-4-yl)-1,3-dimethyl-3-phenylurea]: the concentration for half-maximal inhibition (IC50) in test [1] stood at 11 µM; in test [3], 8 µM. For the same compound, in test [2], the “IL-1β OS of LPS” value turned out to be 44 µM. The MIC in test [4] was above 64 µg/mL.
Consider `CC[C@H]1OC(=O)[C@H](C)[C@@H](O[C@H]2C[C@@](C)(OC)[C@](O)(CNCCC3CCOCC3)[C@H](C)O2)[C@H](C)[C@@H](O[C@@H]2O[C@H](C)C[C@H](N(C)C(=O)N(C)c3ccccc3)[C@H]2O)[C@](C)(O)C[C@@H](C)CN[C@H](C)[C@@H](O)[C@]1(C)O` [Example H-33, 1-((2S,3R,4S,6R)-2-(((2R,3S,4R,5R,8R,10R,11R,12S,13S,14R)-2-ethyl-3,4,10-trihydroxy-13-(((2R,4R,5S,6S)-5-hydroxy-4-methoxy-4,6-dimethyl-5-(((2-(tetrahydro-2H-pyran-4-yl)ethyl)amino)methyl)tetrahydro-2H-pyran-2-yl)oxy)-3,5,8,10,12,14-hexamethyl-15-oxo-1-oxa-6-azacyclopentadecan-11-yl)oxy)-3-hydroxy-6-methyltetrahydro-2H-pyran-4-yl)-1,3-dimethyl-3-phenylurea], for which the IC50 in test [1] was 37 µM; in test [3], 57 µM. Besides, the “IL-1β OS of LPS” value in test [2] came to 6 µM. Besides, the MIC in test [4] was above 64 µg/mL.
The like results for `CC[C@H]1OC(=O)[C@H](C)[C@@H](O[C@H]2C[C@@](C)(OC)[C@](O)(CN(C)C3CCC3)[C@H](C)O2)[C@H](C)[C@@H](O[C@@H]2O[C@H](C)C[C@H](N(C)C(=O)N(C)c3ccccc3)[C@H]2O)[C@](C)(O)C[C@@H](C)CN[C@H](C)[C@@H](O)[C@]1(C)O` [Example H-37, 1-((2S,3R,4S,6R)-2-(((2R,3S,4R,5R,8R,10R,11R,12S,13S,14R)-13-(((2R,4R,5S,6S)-5-((cyclobutyl(methyl)amino)methyl)-5-hydroxy-4-methoxy-4,6-dimethyltetrahydro-2H-pyran-2-yl)oxy)-2-ethyl-3,4,10-trihydroxy-3,5,8,10,12,14-hexamethyl-15-oxo-1-oxa-6-azacyclopentadecan-11-yl)oxy)-3-hydroxy-6-methyltetrahydro-2H-pyran-4-yl)-1,3-dimethyl-3-phenylurea] were, in that order, 8 µM, 12 µM, 40 µM and above 64 µg/mL.
The like results for `CC[C@H]1OC(=O)[C@H](C)[C@@H](O[C@H]2C[C@@](C)(OC)[C@](O)(CNCCS(=O)(=O)c3ccccc3)[C@H](C)O2)[C@H](C)[C@@H](O[C@@H]2O[C@H](C)C[C@H](N(C)C(=O)N(C)c3ccccc3)[C@H]2O)[C@](C)(O)C[C@@H](C)CN[C@H](C)[C@@H](O)[C@]1(C)O` [Example H-43, 1-((2S,3R,4S,6R)-2-(((2R,3S,4R,5R,8R,10R,11R,12S,13S,14R)-2-ethyl-3,4,10-trihydroxy-13-(((2R,4R,5S,6S)-5-hydroxy-4-methoxy-4,6-dimethyl-5-(((2-(phenylsulfonyl)ethyl)amino)methyl)tetrahydro-2H-pyran-2-yl)oxy)-3,5,8,10,12,14-hexamethyl-15-oxo-1-oxa-6-azacyclopentadecan-11-yl)oxy)-3-hydroxy-6-methyltetrahydro-2H-pyran-4-yl)-1,3-dimethyl-3-phenylurea] were, in that order, 34 µM, 29 µM, 16 µM and above 64 µg/mL.
